Test results reported in patent US8058309B2, “Protein kinase modulators and therapeutic uses thereof” (Novotyr Therapeutics Ltd., priority 2006, dated 2011).

Test system: Panc1 tumors
Assay: Pancreatic cancer Panc1 xenograft tumor growth
Type: in vivo, nude mice
Details: intratumoral, 1/day, 125 μg/day
Description: Human hormone-refractory prostate cancer PC3 cells (ATCC, 1.5×10^6 cells per mouse) were injected subcutaneously into the right leg of Nude:Hsd mice (purchased from Harlan). Ten days later, when palpable tumors had developed, mice were divided into 3 groups with similar average tumor size. […] The mice treated with compound 7 group were daily injected with compound 7 dissolved in the below described vehicle, and the vehicle-treated group (veh) was daily injected by the vehicle alone. Vehicle included 4.4% DMSO, 1.2% Ethanol and 50% PEG400 in DDW; Groups were composed of 3 mice per group. Dose administered IP was 50 mg/Kg (4 ml/Kg) once a day for one month. The length (l) and the width (w) of the tumors were measured every day and the volumes of the tumors were calculated as follows: v=1w^2/2. Graphs present average volumes of the tumors versus time in days. The procedure was followed for the other described in-vivo studies with the following modifications:
Human pancreatic cancer Pancl cells (2×10^6 cells per mouse) were injected subcutaneously into the right leg of male Nude:Hsd mice (purchased from Harlan). Compound 7 was injected intratumorally (IT) daily at doses of 125 μg/mouse in 0.06% DMSO and 2.16% PEG400 in saline.

SMILES: N#C/C(=C\c1cc(O)c(O)c(Br)c1)C(=S)NCc1cc(O)c(O)c(O)c1 [Compound 7]
- Growth inhibition of pancreatic cancer Panc1 tumors: 50%
